The results in this text go back to patent US20030229132A1, “Small molecule modulators of apoptosis” (priority 2002, published 2003).

One experiment deals with Jurkat cells. Put plainly: Caspase-3 activation in Jurkat cells (immunoblot). The format is cell-based, human. The conditions noted are these: 50 μM compound or 1 μM staurosporin, 6 hr. Here is the method: (C) DNA fragmentation analysis. […] Cell viability assay.
Compounds were then tested for their ability to induce apoptosis in live cells. The ability of the compounds to activate caspase-3 in a Jurkat cell line was first assayed. […] This same pattern was seen when we assayed for the cleavage of poly (ADP-ribose) polymerase (PARP), a cellular substrate of caspases-3 and -7 (see, D. W. Nicholson, Cell Death Differ 6, 1028-42 (1999)). Upon apoptosis, PAR-P is cleaved from a 116 kD to an 85 kD protein.
A general note: A western blot detects proteins with antibodies after separation by electrophoresis.

Experiment [1] concerns caspase-3 (DEVDase activity). Put plainly: DEVDase fluorescence screen in HeLa cell S-100 cytoplasmic extracts. The experiment is classed as biochemical. The note with it: in vitro fluorescence assay, HeLa S-100 extracts with cyto c. The text has this:
In order to identify compounds that modulate apoptosis, a chemical genetics approach was utilized to screen for molecules that target components of the apoptosis pathway (see, T. U. Mayer et al., Science 286, 971-4 (1999)). An in vitro screen using cytoplasmic extracts was adapted for apoptosis to a 96-well format and used to test an in-house library of ˜3500 compounds (see, T. Fernandes-Alnemri et al, Proc Natl Acad Sci USA 93, 7464-9 (1996); X. Liu, C. N. Kim, J. Yang, R. Jemmerson, X. Wang, Cell 86, 147-57 (1996); L. M. Leoni et al., Proc Natl Acad Sci USA 95, 9567-71 (1998)). Briefly, individual compounds were added to HeLa cell S-100 cytoplasmic extracts at a final concentration of 1 mM and apoptosis was induced by adding bovine heart cyto c (HeLa cell cytoplasmic extracts were prepared according to previously published reports (see, P. Li et al., Cell 91, 479-89 (1997)). Compounds were distributed into 96-well microtiter plates at a final concentration of 1 mM. To each well was added 250 μg of total protein from cytoplasmic extracts in HEB buffer (50 mM Hepes pH 7.4, 50 mM KCl, 5 mM EGTA, 2 mM MgCl), with 2 mM DTT, 2 μM cyto c, and 0.5 μM DEVD-AFC substrate in a total of 150 μL. Plates were incubated at 37° C. and fluorescence was read in a LJL Biosystems plate reader at 10 min intervals). Activation of caspase-3 was monitored by cleavage of a fluorogenic substrate, Asp-Glu-Val-Asp-7-amino-4-trifluoromethylcoumarin (DEVDase activity). As designed, the DEVDase fluorescence screen encompasses the release of cyto c from the mitochondria to the activation of caspase-3. Possible targets include cyto c, Apaf-1, caspase-9, caspase-3, inhibitors of apoptosis (IAPs), and possible unidentified components present in the cytosol.

Turning to `O=C(NCc1ccc(Cl)c(Cl)c1)OC1CCc2ccccc21` (stereo not drawn) [Compound 4], in the experiment with Jurkat cells, the “processing of procaspase-3” value is on record as “less processing”. Further, the “activation of DEVDase activity” value in experiment [1] is on record as “no activity”.

Take `O=C1C(=O)N(Cc2ccc(Cl)c(Cl)c2)c2ccccc21` [Compound 2]: the “processing of procaspase-3” value with Jurkat cells is given as “significant processing”. Moreover, the “activation of DEVDase activity” value in experiment [1] is recorded as “strongly activated DEVDase activity”.

As for `O=C(NCc1ccc(Cl)c(Cl)c1)OC1CCc2ccccc21` (stereo not drawn) [Compound 5], in the experiment with Jurkat cells, the “processing of procaspase-3” value was “significant processing”. Moreover, the “activation of DEVDase activity” value in experiment [1] is “strongly activated DEVDase activity”.
